Experimental data: patent US6664269B2, “Isoquinolinone derivatives” (Maybridge plc, priority 2001, dated 2003)

What was measured:
[1] = test system: HeLa cells; assay: Dose Enhancing Factor: potentiation of bleomycin cell growth inhibition (SRB assay); type: cell-based; settings: test compound 25 μM, bleomycin 0.5 μg/ml
Protocol: The Dose Enhancing Factor (DEF) is a ratio of the enhancement of cell growth inhibition elicited by the test compound in the presence of bleomycin compared to bleomycin alone. The test compounds were used at a fixed concentration of 25 μM. Bleomycin was used at a concentration of 0.5 μg/ml. The DEF was calculated from the formula: [formula]
GrowthTC is cell growth in presence of the test compound;
GrowthControl is cell growth of control cells;
Growthbleo is cell growth in presence of bleomycin; and
Growth(bleo+TC) is cell growth in presence of bleomycin and the test compound.
Cell growth was assessed using the sulforhodamine B (SRB) assay (Skehan, P., et al., 1990, J. Natl. Cancer Inst., 82, 1107-1112). 2,000 HeLa cells were seeded into each well of a flat-bottomed 96-well microtiter plate in a volume of 100 μl and incubated for 6 hours at 37° C. Cells were either replaced with media alone or with media containing the test compound at a final concentration of 25 μM. Cells were allowed to grow for a further 1 hour before the addition of bleomycin to either untreated cells or test compound treated cells. Cells untreated with either bleomycin or test compound were used as a control. Cells treated with test compound alone were used to assess the growth inhibition by the test compound.
Cells were left for a further 16 hours before replacing the media and allowing the cells to grow for a further 72 hours at 37° C. The media was then removed and the cells fixed with 100 μl of ice cold 10% (w/v) trichloroacetic acid. The plates were incubated at 4° C. for 20 minutes and then washed four times with water. Each well of cells was then stained with 100 μl of 0.4% (w/v) SRB in 1% acetic acid for 20 minutes before washing four times with 1% acetic acid. Plates were then dried for 2 hours at room temperature. The dye from the stained cells was solubilized by the addition of 100 μl of 10 mM Tris Base into each well. Plates were gently shaken and left at room temperature for 30 minutes before measuring the optical density at 564 nm on a Microquant microtiter plate reader.

Structure (SMILES) | melting point [°C] | DEF (Dose Enhancing Factor) [1]
O=c1[nH]cc(Cc2cccc(F)c2)c2ccccc12 [Compound 11, 4-(3-Fluorobenzyl)-1-isoquinolinone] | 132 to 134 | –
O=c1[nH]cc(Cc2ccc(F)c(F)c2)c2ccccc12 [Compound 10, 4-(3,4-Difluorobenzyl)-1-isoquinolinone] | 148 to 150 | –
COc1cccc(Cc2cc3ccccc3c(=O)[nH]2)c1 [Compound 4, 3-(3-Methoxybenzyl)-1-isoquinolinone] | 208 to 210 | 1.2
O=c1[nH]cc(Cc2ccc(F)cc2)c2ccccc12 [Compound 9, 4-(4-Fluorobenzyl)-1-isoquinolinone] | 185 to 188 | –
O=c1[nH]c(CCc2ccccc2)cc2ccccc12 [Compound 2, 3-(2-Phenylethyl)-1-isoquinolinone] | 198 to 200 | 1.4
O=c1[nH]c(Cc2cccc(O)c2)cc2ccccc12 [Compound 7, 3-(3-hydroxybenzyl)isoquinolinone] | 225 to 227 | 1.2
CCC(c1ccccc1)c1cc2ccccc2c(=O)[nH]1 (stereo not drawn) [Compound 3, 3-(1-Phenylpropyl)-1-isoquinolinone] | 179 to 180 | –
COc1ccc(Cc2cc3ccccc3c(=O)[nH]2)cc1 [Compound 1, 3-(4-methoxybenzyl)-1-isoquinolinone] | 216 to 218 | 1.15
O=c1[nH]cc(Cc2ccc(Br)cc2)c2ccccc12 [Compound 13, 4-(4-Bromobenzyl)-1-isoquinolinone] | 180 to 182 | –
O=c1[nH]c(Cc2ccccc2)cc2ccccc12 [Compound 5, 3-Benzyl-1-isoquinolinone] | 193 to 195 | 1.1
O=c1[nH]c(Cc2ccc(F)cc2)cc2ccccc12 [Compound 6, 3-(4-Fluorobenzyl)-1-isoquinolinone] | 238 to 240 | –
O=c1[nH]cc(Cc2ccccc2)c2ccccc12 [Compound 8, 4-benzyl-1-isoquinolinone] | 217 to 220 | –
N#Cc1cccc(Cc2c[nH]c(=O)c3ccccc23)c1 [Compound 12, 4-(3-Cyanobenzyl)-1-isoquinolinone] | 85 to 88 | –
